Results published in EP2979694B1, “Dimercaptosuccinic acid for the treatment of multidrug resistant bacterial infections” (priority 2014, dated 2016).
pIC50, pKi: −log10 of the molar value.

Legend:
Kp C3 KPC-3 = assay: MIC of meropenem with or without DMSA or MSA (negative control strain, non-metallo carbapenemase KPC); format: cell-based, K. pneumoniae; conditions: Kp C3 KPC-3 (negative control)
Procedure: (§1) MICs of meropenem with of without DMSA or MSA Table 3
(§2) DMSA and MSA were used at a concentration of 3 mM each. A negative control was used as strain KpC3 producing the non- metallo carbapenemase KPC

E. coli NDM CHAN = assay: MIC of meropenem with or without DMSA or MSA; format: cell-based
Procedure: (§3) DMSA reduced the MICs of ertapenem for bacteria producing NDM-1 though the synergy effect was weaker than that observed for bacteria producing IMP and VIM-type MBLs.
as §1, §2

E. coli VIM KOW7 = assay: MIC of meropenem with or without DMSA or MSA; format: cell-based
Procedure: as §3, §1, §2

E. coli NDM FEK = assay: MIC of meropenem with or without DMSA or MSA; format: cell-based
Procedure: as §3, §1, §2

E. coli NDM pCR2.1 = assay: MIC of meropenem with or without DMSA or MSA; format: cell-based
Procedure: as §3, §1, §2

Kp VIM KOW1 = assay: MIC of meropenem with or without DMSA or MSA; format: cell-based, K. pneumoniae
Procedure: as §1, §2

Kp NDM IND = assay: MIC of meropenem with or without DMSA or MSA; format: cell-based, K. pneumoniae
Procedure: as §1, §2

Kp NDM KIE = assay: MIC of meropenem with or without DMSA or MSA; format: cell-based, K. pneumoniae
Procedure: as §1, §2

K.p. 6852 = assay: MIC of carbapenems with or without DMSA; format: cell-based, K. pneumoniae; conditions: K.p. 6852, IMP-1 + SHV-5; no DMSA
Procedure: (§4) Minimum inhibitory concentrations (MICs) of carbapenems were determined in-vitro with strains (reference and clinical) producing the three main types of class B carbapenemases which are IMP, VIM and NDM, with or without EDTA and DMSA.
(§5) MICs of imipenem was determined for E. coli TOP10 pCR2.1-(PNDM-1-blaNDM-1-bleMBL) in the presence of 0, 0.01, 0.1 or 1 mg/ml of Ca-EDTA or DMSA by using the broth microdilution method in zinc-complemented M9CA minimum medium (SD7025, Euromedex, France).
(§6) A 100 mM DMSA stock solution (Sigma Aldrich, France) (pH 5.0) was prepared in 0.2 M NaOH as recommended (Maiorino et al. 1990) and pH was neutralized to pH 7.0 with NaHCO3 Na2Ca-EDTA (Sigma Aldrich, France) dissolved in water.
(§7) The strains were as follows: VIM producers (n=10), IMP producers (n=9), NDM-1 producers (n=10). The selected concentration of DMSA was 10-fold (0.3 mM) and 100-fold (3 mM) that of the human peak serum concentration after oral administration (Asiedu et al;, 1995), and that of Ca-EDTA was assayed at the fixed concentration of 0.2 mM (Table 2). […]

K.p. TAW = assay: MIC of carbapenems with or without DMSA; format: cell-based, K. pneumoniae; conditions: IMP-8 + SHV-5, no DMSA
Procedure: as §4, §5, §6, §7

K.p. ROUM = assay: MIC of carbapenems with or without DMSA; format: cell-based, K. pneumoniae; conditions: VIM, no DMSA
Procedure: as §4, §5, §6, §7

K.p. 0709124 = assay: MIC of carbapenems with or without DMSA; format: cell-based, K. pneumoniae; conditions: K.p. 0709124, IMP-1b + TEM-15; no DMSA
Procedure: as §4, §5, §6, §7

E. coli 1108013 = assay: MIC of carbapenems with or without DMSA; format: cell-based; conditions: E. coli 1108013, IMP-1 + TEM-1; no DMSA
Procedure: as §4, §5, §6, §7

E. cloacae TAW = assay: MIC of carbapenems with or without DMSA; format: cell-based; conditions: IMP-8, no DMSA
Procedure: as §4, §5, §6, §7

E. coli 405 = assay: MIC of carbapenems with or without DMSA; format: cell-based; conditions: E. coli 405, NDM-5 + TEM-1 +CTX-M-15; no DMSA
Procedure: as §4, §5, §6, §7

E. cloacae 396715 = assay: MIC of carbapenems with or without DMSA; format: cell-based; conditions: E. cloacae 396715, VIM-1; no DMSA
Procedure: as §4, §5, §6, §7

E. coli 1008077 = assay: MIC of carbapenems with or without DMSA; format: cell-based; conditions: E. coli 1008077, VIM-1 + TEM-3; no DMSA
Procedure: as §4, §5, §6, §7

E. coli IBIS = assay: MIC of carbapenems with or without DMSA; format: cell-based; conditions: VIM-4, no DMSA, unit assumed
Procedure: as §4, §5, §6, §7

E. coli JAP = assay: MIC of carbapenems with or without DMSA; format: cell-based; conditions: IMP-1, no DMSA
Procedure: as §4, §5, §6, §7

E. coli MAD = assay: MIC of carbapenems with or without DMSA; format: cell-based; conditions: VIM-1 + CTX-M-3, no DMSA
Procedure: as §4, §5, §6, §7

E. cloacae 1008085 = assay: MIC of carbapenems with or without DMSA; format: cell-based; conditions: E. cloacae 1008085, IMP-1; no DMSA
Procedure: as §4, §5, §6, §7

E. coli COUP = assay: MIC of carbapenems with or without DMSA; format: cell-based; conditions: NDM-7 + OXA-1 +CTX-M-15, no DMSA
Procedure: as §4, §5, §6, §7

E. coli 162 = assay: MIC of carbapenems with or without DMSA; format: cell-based; conditions: E. coli 162, NDM-5 + TEM-1 +CTX-M-15; no DMSA
Procedure: as §4, §5, §6, §7

E. coli BOUN = assay: MIC of carbapenems with or without DMSA; format: cell-based; conditions: NDM-4 + OXA-1, no DMSA
Procedure: as §4, §5, §6, §7

E. cloacae 1008029 = assay: MIC of carbapenems with or without DMSA; format: cell-based; conditions: E. cloacae 1008029, VIM-1 + CTX-M-3; no DMSA
Procedure: as §4, §5, §6, §7

E. coli IR5 = assay: MIC of carbapenems with or without DMSA; format: cell-based; conditions: E. coli IR5, NDM-1 + TEM-1 +CTX-M-15; no DMSA
Procedure: as §4, §5, §6, §7

E. coli 0404018 = assay: MIC of carbapenems with or without DMSA; format: cell-based; conditions: E. coli 0404018, VIM-1 + CMY-6; no DMSA
Procedure: as §4, §5, §6, §7

E. cloacae 1008183 = assay: MIC of carbapenems with or without DMSA; format: cell-based; conditions: E. cloacae 1008183, IMP-1; no DMSA
Procedure: as §4, §5, §6, §7

E. coli DIH = assay: MIC of carbapenems with or without DMSA; format: cell-based; conditions: VIM-19, no DMSA
Procedure: as §4, §5, §6, §7

E. cloacae 1008186 = assay: MIC of carbapenems with or without DMSA; format: cell-based; conditions: E. cloacae 1008186, IMP-1; no DMSA
Procedure: as §4, §5, §6, §7

[1] = system: E. coli TOP10 pCR2.1-(PNDM-1-blaNDM-1-bleMBL); assay: MIC of imipenem, broth microdilution in zinc-complemented M9CA minimum medium; format: cell-based
Description: (§8) Inhibitory properties of DMSA and EDTA were also compared in-vitro by UV spectrophotometry using purified NDM-1 protein and carbapenems as substrates. E. coli TOP10 pCR2.1-(PNDM-1-blaNDM-1-bleMBL), expressing the blaNDM-1 gene with its original promoter (PNDM-1) cloned into a pTOPO multicopy plasmid and expressed in E. coli TOP10 reference strain (Dortet et al. 2012) was used for preliminary assays in order to determine the most efficient of DMSA being active against NDM producers.
as §5, with “France). M9CA minimal medium was used preferably to the standard Mueller Hinton broth in order to determine precisely the concentration of zinc in broth (ZnSO4, Sigma Aldrich, France, 5µg/ml (final concentration).” for “France).”
as §6

[2] = after a single oral dose of DMSA (10 mg); cited from earlier work
NDM-1 [3] = biological target: T1, NDM-1 (Klebsiella pneumoniae, UniProt C7C422); assay: Inhibition of purified NDM-1 hydrolytic activity, UV spectrophotometry; format: biochemical
T1 construct: made in house
T1 sequence (C7C422 29-270, looked up): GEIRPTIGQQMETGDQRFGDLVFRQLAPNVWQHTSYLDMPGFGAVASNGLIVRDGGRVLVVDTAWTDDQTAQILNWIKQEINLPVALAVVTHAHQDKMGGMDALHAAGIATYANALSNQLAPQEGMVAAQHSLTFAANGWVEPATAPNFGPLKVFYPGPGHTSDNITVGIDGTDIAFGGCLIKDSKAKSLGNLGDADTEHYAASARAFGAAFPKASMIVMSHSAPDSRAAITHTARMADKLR
Description: as §8
Inhibition of NDM-1 by DMSA was assessed on a purified fraction of NDM-1, obtained as previously described for NDM-4 (Nordmann et al. 2012) with imipenem 100 µM as substrate.

NDM-like producers = assay: MIC of carbapenems, summary over NDM producers (n=10); format: cell-based; conditions: DMSA at 3 mM
Procedure: as §7, with “2). The MICs of carbapenems varied widely among isolates producing a same carbapenemase type. DMSA at 3 mM lowered the MICs of imipenem and ertapenem of IMP-like producers (100% of the tested isolates), and VIM-like producers (70 to 80 % of the tested isolates).” for “2).”

IMP-like producers = assay: MIC of carbapenems, summary over IMP producers (n=9); format: cell-based
Procedure: as §7, with “2). The MICs of carbapenems varied widely among isolates producing a same carbapenemase type. DMSA at 3 mM lowered the MICs of imipenem and ertapenem of IMP-like producers (100% of the tested isolates), and VIM-like producers (70 to 80 % of the tested isolates).” for “2).”

IMP-1 = IMP-1 (Serratia marcescens, UniProt P52699); conditions: 20 microM; cited from earlier work
Sequence of IMP-1 (P52699 19-246 limits assumed): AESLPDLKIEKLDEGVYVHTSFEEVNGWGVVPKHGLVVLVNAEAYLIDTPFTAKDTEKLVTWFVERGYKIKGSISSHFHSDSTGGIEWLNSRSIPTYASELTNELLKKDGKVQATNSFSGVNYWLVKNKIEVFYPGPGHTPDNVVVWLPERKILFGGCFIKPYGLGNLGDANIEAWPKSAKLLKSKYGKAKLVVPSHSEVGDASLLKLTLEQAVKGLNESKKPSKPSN

NDM-1 [4] = biological target: T1, NDM-1; conditions: affinity for NDM-1; cited from earlier work
[5] = Escherichia coli, without DMSA or MSA
[6] = Klebsiella pneumoniae, without DMSA or MSA

C[C@@H](O)[C@H]1C(=O)N2C(C(=O)O)=C(S[C@@H]3CN[C@H](C(=O)N(C)C)C3)[C@H](C)[C@H]12 [meropenem]
MIC (Kp C3 KPC-3; Klebsiella pneumoniae, C3KPC3, without DMSA or MSA): > 32 µg/mL
MIC (E. coli NDM CHAN; [5]): 3 µg/mL
MIC (E. coli VIM KOW7; Escherichia coli, VIMKOW7, without DMSA or MSA): 0.5 µg/mL
MIC (E. coli NDM FEK; [5]): 6 µg/mL
MIC (E. coli NDM pCR2.1; Escherichia coli, NDMPCR2.1, read-out: MIC of meropenem): > 32 µg/mL
MIC (Kp VIM KOW1; Klebsiella pneumoniae, VIMKOW1, without DMSA or MSA): > 32 µg/mL
MIC (Kp NDM IND; [6]): 4 µg/mL
MIC (Kp NDM KIE; [6]): 4 µg/mL

C[C@@H](O)[C@H]1C(=O)N2C(C(=O)O)=C(SCCN=CN)C[C@H]12 [IPM, imipenem]
MIC (K.p. 6852): > 32 µg/mL
MIC (K.p. TAW): 4 µg/mL
MIC (K.p. ROUM): 32 µg/mL
MIC (K.p. 0709124): 32 µg/mL
MIC (E. coli 1108013): 4 µg/mL
MIC (E. cloacae TAW): 4 µg/mL
MIC (E. coli 405): 32 µg/mL
MIC (E. cloacae 396715): 4 µg/mL
MIC (E. coli 1008077): 32 µg/mL
MIC (E. coli IBIS): 1 µg/mL
MIC (E. coli JAP): 0.25 µg/mL
MIC (E. coli MAD): 0.25 µg/mL
MIC (E. cloacae 1008085): 2 µg/mL
MIC (E. coli COUP): 2 µg/mL
MIC (E. coli 162): 32 µg/mL
MIC (E. coli BOUN): 2 µg/mL
MIC (E. cloacae 1008029): 16 µg/mL
MIC (E. coli IR5): 2 µg/mL
MIC (E. coli 0404018): 4 µg/mL
MIC (E. cloacae 1008183): 8 µg/mL
MIC (E. coli DIH): 16 µg/mL
MIC (E. cloacae 1008186): 16 µg/mL

O=C(O)[C@@H](S)[C@@H](S)C(=O)O [DMSA, meso-2,3-dimercaptosuccinic acid]
MIC of meropenem (Kp C3 KPC-3; DMSA or MSA at 3 mM): > 32 µg/mL
MIC of imipenem ([1]; DMSA 0 mg/ml (imipenem alone)): 12 µg/mL
MIC of imipenem ([1]; DMSA 0.01 mg/ml): 12 µg/mL
MIC of imipenem ([1]; DMSA 0.1 mg/ml): 12 µg/mL
MIC of imipenem ([1]; DMSA 1 mg/ml): 0.2 µg/mL
plasma concentrations of DMSA [2]: ca. 100 µM
pIC50 (NDM-1 [3]): 3.00
effect on the MIC values of imipenem (NDM-like producers): did not significantly affect
tested isolates for which the MICs of ertapenem were reduced (NDM-like producers): 50%
MIC of meropenem (E. coli NDM CHAN; DMSA or MSA at 3 mM): 2 µg/mL
MIC of meropenem (E. coli VIM KOW7; DMSA or MSA at 3 mM): 0.25 µg/mL
MIC of meropenem (E. coli NDM FEK; DMSA or MSA at 3 mM): 4 µg/mL
MIC of meropenem (E. coli NDM pCR2.1; E. coli NDM pCR2.1, DMSA or MSA at 3 mM): 8 µg/mL
MIC of meropenem (Kp VIM KOW1; DMSA or MSA at 3 mM): 32 µg/mL
MIC of meropenem (Kp NDM IND; DMSA or MSA at 3 mM): 4 µg/mL
MIC of meropenem (Kp NDM KIE; DMSA or MSA at 3 mM): 0.5 µg/mL
effect on the MICs of carbapenems (IMP-like producers; DMSA 0.3 mM, IMP-like producing isolates): lowered the MICs of carbapenems for most IMP-like producing isolates
tested isolates for which the MICs of imipenem and ertapenem were lowered (IMP-like producers; DMSA at 3 mM, IMP-like producers): 100%
inhibition of IMP-1 (IMP-1): inhibit

CC/C(C(=O)O)=C(\CC)C(=O)O [ME1071]
pKi (NDM-1 [4]): 1.62
